Results from patent US10005774B2, “Syk inhibitors” (Gilead Sciences, Inc., priority 2013, dated 2018).
Values joined by “and” are separate entries in the source; they are usually repeats but may differ in a detail not shown here. Equal values may be shown once.

These compounds were tested against Syk (Homo sapiens, UniProt P43405) (assay: High Throughput Syk Biochemical Assay (KinEASE TR-FRET)). Conditions: TABLE D, 20 μM ATP, 1 μM biotinylated peptide, 0.015 nM Syk, 30 min at room temperature, read-out: IC50.
Protocol: High Throughput Syk Biochemical Assay
Syk activity was measured using KinEASE (Cisbio), a time-resolved fluorescence resonance energy transfer (TR-FRET) immunoassay. In this assay. Syk-catalyzes the phosporylation of a XL665-labeled peptide substrate. Europium conjugated phospho-tyrosine specific antibody binds the resulting phosphorylated peptide. Formation of phosphorylated peptide is quantified by TR-FRET with Europium as the donor and XL665 the acceptor in a 2-step endpoint assay. In brief, test compounds serially diluted in DMSO were delivered into Corning white, low volume, non-binding 384 well plates using the Echo 550 acoustic liquid dispenser (Labcyte®). Syk enzyme and substrates were dispensed into assay plates using a Multi-Flo (Bio-Tek Instruments). […] Percent inhibition was calculated as follows: % Inhibition=100×(RatioSample−Ratio0% Inhibition)/(Ratio100% Inhibition−Ratio0% Inhibition)

**Q.** Which IC50 does the source give for `COc1cc(-c2cc3ncn(C)c3c(O[C@H](C)[C@H]3CNC(=O)C3)n2)ccc1C#N` [2-methoxy-4-(3-methyl-4-((R)-1-((R)-5-oxopyrrolidin-3-yl)ethoxy)-3H-imidazo[4,5-c]pyridin-6-yl)benzonitrile] here?
**A.** 74.2 nM

**Q.** With `C[C@@H](Oc1nc(-c2ccc(C#N)cc2)cc2ncn(C)c12)[C@H]1CNC(=O)C1` [4-(3-methyl-4-((R)-1-((R)-5-oxopyrrolidin-3-yl)ethoxy)-3H-imidazo[4,5-c]pyridin-6-yl)benzonitrile] as the compound, how does the IC50 read?
**A.** 28.4 nM

**Q.** How did the IC50 turn out when `C[C@@H](Oc1nc(-c2cc[nH]c(=O)c2)cc2ncn(C)c12)[C@H]1CNC(=O)C1` [4-(3-methyl-4-((R)-1-((R)-5-oxopyrrolidin-3-yl)ethoxy)-3H-imidazo[4,5-c]pyridin-6-yl)pyridin-2(1H)-one] was run?
**A.** 97.5 nM

**Q.** How did the IC50 turn out when `C[C@@H](Oc1nc(-c2ccc3c(c2)C(=O)NCCO3)cc2ncn(C)c12)[C@H]1CNC(=O)C1` [7-(3-methyl-4-((R)-1-((R)-5-oxopyrrolidin-3-yl)ethoxy)-3H-imidazo[4,5-c]pyridin-6-yl)-3,4-dihydrobenzo[f][1,4]oxazepin-5(2H)-one] was run?
**A.** 30.6 nM

**Q.** `COc1ccc(-c2cc3nc(C)n(C)c3c(O[C@H](C)[C@H]3CNC(=O)C3)n2)cc1OC` [(4R)-4-((1R)-1-(6-(3,4-dimethoxyphenyl)-2,3-dimethyl-3a,7a-dihydro-3H-imidazo[4,5-c]pyridin-4-yloxy)ethyl)pyrrolidin-2-one] was tested. Which IC50 did it give?
**A.** 25.4 nM

**Q.** Which IC50 does the source give for `COc1ccc(-c2cc3ncn(CC(F)F)c3c(O[C@H](C)[C@H]3CNC(=O)C3)n2)cc1OC` [(R)-4-((R)-1-(3-(2,2-difluoroethyl)-6-(3,4-dimethoxyphenyl)-3H-imidazo[4,5-c]pyridin-4-yloxy)ethyl)pyrrolidin-2-one] here?
**A.** 19.5 nM

**Q.** Which IC50 does the source give for `COc1ccc(-c2cc3nc(C)n(C(F)F)c3c(O[C@H](C)[C@H]3CNC(=O)C3)n2)cc1OC` [(R)-4-((R)-1-(3-(difluoromethyl)-6-(3,4-dimethoxyphenyl)-2-methyl-3H-imidazo[4,5-c]pyridin-4-yloxy)ethyl)pyrrolidin-2-one] here?
**A.** 50.8 nM

**Q.** With `COc1ccc(-c2cc3ncn(C(F)F)c3c(O[C@H](C)[C@H]3CNC(=O)C3)n2)cc1OC` [(R)-4-((R)-1-(3-(difluoromethyl)-6-(3,4-dimethoxyphenyl)-3H-imidazo[4,5-c]pyridin-4-yloxy)ethyl)pyrrolidin-2-one] as the compound, how does the IC50 read?
**A.** 1.1 nM

**Q.** `C[C@@H](Oc1nc(-c2ccc(N3CCOCC3)cc2)cc2ncn(C(F)F)c12)[C@H]1CNC(=O)C1` [(R)-4-((R)-1-(3-(difluoromethyl)-6-(4-morpholinophenyl)-3H-imidazo[4,5-c]pyridin-4-yloxy)ethyl)pyrrolidin-2-one] was tested. Which IC50 did it give?
**A.** 1.55 nM and 1.25 nM

**Q.** Which IC50 does the source give for `COc1ccc(-c2cc3ncn(C4CCC4)c3c(O[C@H](C)[C@H]3CNC(=O)C3)n2)cc1OC` [(R)-4-((R)-1-(3-cyclobutyl-6-(3,4-dimethoxyphenyl)-3H-imidazo[4,5-c]pyridin-4-yloxy)ethyl)pyrrolidin-2-one] here?
**A.** 23.5 nM

**Q.** With `COc1ccc(-c2cc3nc(C)n(C4CC4)c3c(O[C@H](C)[C@H]3CNC(=O)C3)n2)cc1OC` [(R)-4-((R)-1-(3-cyclopropyl-6-(3,4-dimethoxyphenyl)-2-methyl-3H-imidazo[4,5-c]pyridin-4-yloxy)ethyl)pyrrolidin-2-one] as the compound, how does the IC50 read?
**A.** 95.8 nM

**Q.** Which IC50 does the source give for `COc1ccc(-c2cc3ncn(C4CC4)c3c(O[C@H](C)[C@H]3CNC(=O)C3)n2)cc1OC` [(R)-4-((R)-1-(3-cyclopropyl-6-(3,4-dimethoxyphenyl)-3H-imidazo[4,5-c]pyridin-4-yloxy)ethyl)pyrrolidin-2-one] here?
**A.** 1.6 nM

**Q.** How did the IC50 turn out when `C[C@@H](Oc1nc(-c2cnn(CC(F)(F)F)c2)cc2ncn(C)c12)[C@H]1CNC(=O)C1` [(R)-4-((R)-1-(3-methyl-6-(1-(2,2,2-trifluoroethyl)-1H-pyrazol-4-yl)-3H-imidazo[4,5-c]pyridin-4-yloxy)ethyl)pyrrolidin-2-one] was run?
**A.** 20.8 nM

**Q.** `C[C@@H](Oc1nc(-c2cnn(C3COC3)c2)cc2ncn(C)c12)[C@H]1CNC(=O)C1` [(R)-4-((R)-1-(3-methyl-6-(1-(oxetan-3-yl)-1H-pyrazol-4-yl)-3H-imidazo[4,5-c]pyridin-4-yloxy)ethyl)pyrrolidin-2-one] was tested. Which IC50 did it give?
**A.** 23.5 nM

**Q.** `C[C@@H](Oc1nc(-c2cnn(C3CCOCC3)c2)cc2ncn(C)c12)[C@H]1CNC(=O)C1` [(R)-4-((R)-1-(3-methyl-6-(1-(tetrahydro-2H-pyran-4-yl)-1H-pyrazol-4-yl)-3H-imidazo[4,5-c]pyridin-4-yloxy)ethyl)pyrrolidin-2-one] was tested. Which IC50 did it give?
**A.** 10.2 nM

**Q.** How did the IC50 turn out when `C[C@@H](Oc1nc(-c2cnn(C)c2)cc2ncn(C)c12)[C@H]1CNC(=O)C1` [(R)-4-((R)-1-(3-methyl-6-(1-methyl-1H-pyrazol-4-yl)-3H-imidazo[4,5-c]pyridin-4-yloxy)ethyl)pyrrolidin-2-one] was run?
**A.** 24.3 nM

**Q.** For `COc1cc(-c2cc3ncn(C)c3c(O[C@H](C)[C@H]3CNC(=O)C3)n2)cc(OC)c1OC` [(R)-4-((R)-1-(3-methyl-6-(3,4,5-trimethoxyphenyl)-3H-imidazo[4,5-c]pyridin-4-yloxy)ethyl)pyrrolidin-2-one], which IC50 is on record?
**A.** 5.26 nM

Same assay, conditions: table 'ALL NEW COMPOUNDS IN 2014', 20 μM ATP, 1 μM biotinylated peptide, 0.015 nM Syk, 30 min at room temperature, read-out: Syk IC50

**Q.** For `C[C@@H](Oc1nc(-c2ccc3c(c2)N(C)C(=O)OC3(C)C)cc2ncn(C)c12)[C@H]1CNC(=O)C1` [1,4,4-trimethyl-7-(3-methyl-4-((R)-1-((R)-5-oxopyrrolidin-3-yl)ethoxy)-3H-imidazo[4,5-c]pyridin-6-yl)-1H-benzo[d][1,3]oxazin-2(4H)-one], which IC50 is on record?
**A.** 2.5 nM

**Q.** For `C[C@@H](Oc1nc(-c2ccc3c(c2)NC(=O)OC3(C)C)cc2ncn(C)c12)[C@H]1CNC(=O)C1` [4,4-dimethyl-7-(3-methyl-4-((R)-1-((R)-5-oxopyrrolidin-3-yl)ethoxy)-3H-imidazo[4,5-c]pyridin-6-yl)-1H-benzo[d][1,3]oxazin-2(4H)-one], which IC50 is on record?
**A.** 0.935 nM

**Q.** With `C[C@@H](Oc1cc(-c2ccc(N3CCN(C4COC4)CC3)c(C#N)c2)cc2ncn(C3CC3)c12)[C@H]1CNC(=O)C1` [5-(1-cyclopropyl-7-((R)-1-((R)-5-oxopyrrolidin-3-yl)ethoxy)-1H-benzo[d]imidazol-5-yl)-2-(4-(oxetan-3-yl)piperazin-1-yl)benzonitrile] as the compound, how does the IC50 read?
**A.** 3.2 nM

**Q.** Which IC50 does the source give for `C[C@@H](Oc1nc(-c2ccc(N3CCN(C4COC4)CC3)c(C#N)c2)cc2ncn(C3CC3)c12)[C@H]1CNC(=O)C1` [5-(3-cyclopropyl-4-((R)-1-((R)-5-oxopyrrolidin-3-yl)ethoxy)-3H-imidazo[4,5-c]pyridin-6-yl)-2-(4-(oxetan-3-yl)piperazin-1-yl)benzonitrile] here?
**A.** 5.21 nM

**Q.** How did the IC50 turn out when `C[C@@H](Oc1nc(-c2cnc3c(c2)N(C)C(=O)C3(C)C)cc2ncn(C3CC3)c12)[C@H]1CNC(=O)C1` [6-(3-cyclopropyl-4-((R)-1-((R)-5-oxopyrrolidin-3-yl)ethoxy)-3H-imidazo[4,5-c]pyridin-6-yl)-1,3,3-trimethyl-1H-pyrrolo[3,2-b]pyridin-2(3H)-one] was run?
**A.** 8.85 nM

**Q.** With `C[C@@H](Oc1nc(-c2ccc3c(c2)NC(=O)C32CCN(S(C)(=O)=O)CC2)cc2ncn(C3CC3)c12)[C@H]1CNC(=O)C1` [6-(3-cyclopropyl-4-((R)-1-((R)-5-oxopyrrolidin-3-yl)ethoxy)-3H-imidazo[4,5-c]pyridin-6-yl)-1′-(methylsulfonyl)spiro[indoline-3,4′-piperidin]-2-one] as the compound, how does the IC50 read?
**A.** 1.08 nM

**Q.** With `C[C@@H](Oc1nc(-c2ccc3c(c2)NC(=O)C3)cc2ncn(C3CC3)c12)[C@H]1CNC(=O)C1` [6-(3-cyclopropyl-4-((R)-1-((R)-5-oxopyrrolidin-3-yl)ethoxy)-3H-imidazo[4,5-c]pyridin-6-yl)indolin-2-one] as the compound, how does the IC50 read?
**A.** 1.75 nM

**Q.** With `C[C@@H](Oc1nc(-c2ccc3c(c2)N(C)C(=O)C32CN(C)C2)cc2ncn(C3CC3)c12)[C@H]1CNC(=O)C1` [6′-(3-cyclopropyl-4-((R)-1-((R)-5-oxopyrrolidin-3-yl)ethoxy)-3H-imidazo[4,5-c]pyridin-6-yl)-1,1′-dimethylspiro[azetidine-3,3′-indolin]-2′-one] as the compound, how does the IC50 read?
**A.** 7.55 nM

**Q.** How did the IC50 turn out when `C[C@@H](Oc1nc(-c2ccc(N3CC4CC(C3)N4C3COC3)cc2)cc2ncn(C3CC3)c12)[C@H]1CNC(=O)C1` [(4R)-4-((1R)-1-((3-cyclopropyl-6-(4-(6-(oxetan-3-yl)-3,6-diazabicyclo[3.1.1]heptan-3-yl)phenyl)-3H-imidazo[4,5-c]pyridin-4-yl)oxy)ethyl)pyrrolidin-2-one] was run?
**A.** 2.69 nM

**Q.** How did the IC50 turn out when `C[C@@H](Oc1cc(-c2ccc(N3CC4CC(C3)O4)cn2)cc2ncn(C3CC3)c12)[C@H]1CNC(=O)C1` [(4R)-4-((1R)-1-((5-(5-(6-oxa-3-azabicyclo[3.1.1]heptan-3-yl)pyridin-2-yl)-1-cyclopropyl-1H-benzo[d]imidazol-7-yl)oxy)ethyl)pyrrolidin-2-one] was run?
**A.** 5.57 nM

**Q.** How did the IC50 turn out when `C[C@@H](Oc1nc(-c2ccc(N3CC4CC(C3)N4)cc2)cc2ncn(C3CC3)c12)[C@H]1CNC(=O)C1` [(4R)-4-((1R)-1-((6-(4-(3,6-diazabicyclo[3.1.1]heptan-3-yl)phenyl)-3-cyclopropyl-3H-imidazo[4,5-c]pyridin-4-yl)oxy)ethyl)pyrrolidin-2-one] was run?
**A.** 2.29 nM

**Q.** How did the IC50 turn out when `C[C@@H](Oc1nc(-c2ccc(N3CC4CC(C3)O4)cc2)cc2ncn(C3CC3)c12)[C@H]1CNC(=O)C1` [(4R)-4-((1R)-1-((6-(4-(6-oxa-3-azabicyclo[3.1.1]heptan-3-yl)phenyl)-3-cyclopropyl-3H-imidazo[4,5-c]pyridin-4-yl)oxy)ethyl)pyrrolidin-2-one] was run?
**A.** 3.21 nM

**Q.** With `O=C1C[C@@H](COc2nc(-c3ccc(N4CCN(C5COC5)CC4)cc3)cc3ncn(C4CC4)c23)CN1` [(R)-4-(((3-cyclopropyl-6-(4-(4-(oxetan-3-yl)piperazin-1-yl)phenyl)-3H-imidazo[4,5-c]pyridin-4-yl)oxy)methyl)pyrrolidin-2-one] as the compound, how does the IC50 read?
**A.** 65.3 nM
